{
  "source": "BigSolDB 2.1",
  "data": [
    {"smiles": "OC[C@@H](O)CN1CCN(c2ccccc2)CC1", "values": [
      {"measurement": "solubility (mole fraction)", "setting": "in ethyl acetate, 283.1 K", "result": 0.000375},
      {"measurement": "solubility (mole fraction)", "setting": "in ethyl acetate, 288.1 K", "result": 0.000529},
      {"measurement": "solubility (mole fraction)", "setting": "in ethyl acetate, 293.1 K", "result": 0.000655},
      {"measurement": "solubility (mole fraction)", "setting": "in ethyl acetate, 298.1 K", "result": 0.000809},
      {"measurement": "solubility (mole fraction)", "setting": "in ethyl acetate, 303.1 K", "result": 0.00104},
      {"measurement": "solubility (mole fraction)", "setting": "in ethyl acetate, 308.1 K", "result": 0.00132},
      {"measurement": "solubility (mole fraction)", "setting": "in ethyl acetate, 313.1 K", "result": 0.00172},
      {"measurement": "solubility (mole fraction)", "setting": "in ethyl acetate, 318.1 K", "result": 0.00229},
      {"measurement": "solubility (mole fraction)", "setting": "in ethyl acetate, 323.1 K", "result": 0.00299},
      {"measurement": "solubility (mole fraction)", "setting": "in isobutanol, 283.1 K", "result": 0.000871},
      {"measurement": "solubility (mole fraction)", "setting": "in isobutanol, 288.1 K", "result": 0.00116},
      {"measurement": "solubility (mole fraction)", "setting": "in isobutanol, 293.1 K", "result": 0.00147},
      {"measurement": "solubility (mole fraction)", "setting": "in isobutanol, 298.1 K", "result": 0.00194},
      {"measurement": "solubility (mole fraction)", "setting": "in isobutanol, 303.1 K", "result": 0.00245},
      {"measurement": "solubility (mole fraction)", "setting": "in isobutanol, 308.1 K", "result": 0.00311},
      {"measurement": "solubility (mole fraction)", "setting": "in isobutanol, 313.1 K", "result": 0.00397},
      {"measurement": "solubility (mole fraction)", "setting": "in isobutanol, 318.1 K", "result": 0.0052},
      {"measurement": "solubility (mole fraction)", "setting": "in isobutanol, 323.1 K", "result": 0.00686},
      {"measurement": "solubility (mole fraction)", "setting": "in isopentanol, 283.1 K", "result": 0.000649},
      {"measurement": "solubility (mole fraction)", "setting": "in isopentanol, 288.1 K", "result": 0.000914},
      {"measurement": "solubility (mole fraction)", "setting": "in isopentanol, 293.1 K", "result": 0.00126},
      {"measurement": "solubility (mole fraction)", "setting": "in isopentanol, 298.1 K", "result": 0.00165},
      {"measurement": "solubility (mole fraction)", "setting": "in isopentanol, 303.1 K", "result": 0.00209},
      {"measurement": "solubility (mole fraction)", "setting": "in isopentanol, 308.1 K", "result": 0.00274},
      {"measurement": "solubility (mole fraction)", "setting": "in isopentanol, 313.1 K", "result": 0.00358},
      {"measurement": "solubility (mole fraction)", "setting": "in isopentanol, 318.1 K", "result": 0.00472},
      {"measurement": "solubility (mole fraction)", "setting": "in isopentanol, 323.1 K", "result": 0.00611},
      {"measurement": "solubility (mole fraction)", "setting": "in isopropanol, 283.1 K", "result": 0.000146},
      {"measurement": "solubility (mole fraction)", "setting": "in isopropanol, 288.1 K", "result": 0.000195},
      {"measurement": "solubility (mole fraction)", "setting": "in isopropanol, 293.1 K", "result": 0.000245},
      {"measurement": "solubility (mole fraction)", "setting": "in isopropanol, 298.1 K", "result": 0.000302},
      {"measurement": "solubility (mole fraction)", "setting": "in isopropanol, 303.1 K", "result": 0.000371},
      {"measurement": "solubility (mole fraction)", "setting": "in isopropanol, 308.1 K", "result": 0.000462},
      {"measurement": "solubility (mole fraction)", "setting": "in isopropanol, 313.1 K", "result": 0.00057},
      {"measurement": "solubility (mole fraction)", "setting": "in isopropanol, 318.1 K", "result": 0.000705},
      {"measurement": "solubility (mole fraction)", "setting": "in isopropanol, 323.1 K", "result": 0.000852},
      {"measurement": "solubility (mole fraction)", "setting": "in isopropyl acetate, 283.1 K", "result": 0.000293},
      {"measurement": "solubility (mole fraction)", "setting": "in isopropyl acetate, 288.1 K", "result": 0.000371},
      {"measurement": "solubility (mole fraction)", "setting": "in isopropyl acetate, 293.1 K", "result": 0.000484},
      {"measurement": "solubility (mole fraction)", "setting": "in isopropyl acetate, 298.1 K", "result": 0.000609},
      {"measurement": "solubility (mole fraction)", "setting": "in isopropyl acetate, 303.1 K", "result": 0.000798},
      {"measurement": "solubility (mole fraction)", "setting": "in isopropyl acetate, 308.1 K", "result": 0.00102},
      {"measurement": "solubility (mole fraction)", "setting": "in isopropyl acetate, 313.1 K", "result": 0.00132},
      {"measurement": "solubility (mole fraction)", "setting": "in isopropyl acetate, 318.1 K", "result": 0.00172},
      {"measurement": "solubility (mole fraction)", "setting": "in isopropyl acetate, 323.1 K", "result": 0.00223},
      {"measurement": "solubility (mole fraction)", "setting": "in n-butanol, 283.1 K", "result": 0.000527},
      {"measurement": "solubility (mole fraction)", "setting": "in n-butanol, 288.1 K", "result": 0.00072},
      {"measurement": "solubility (mole fraction)", "setting": "in n-butanol, 293.1 K", "result": 0.000956},
      {"measurement": "solubility (mole fraction)", "setting": "in n-butanol, 298.1 K", "result": 0.00131},
      {"measurement": "solubility (mole fraction)", "setting": "in n-butanol, 303.1 K", "result": 0.00175},
      {"measurement": "solubility (mole fraction)", "setting": "in n-butanol, 308.1 K", "result": 0.00239},
      {"measurement": "solubility (mole fraction)", "setting": "in n-butanol, 313.1 K", "result": 0.00318},
      {"measurement": "solubility (mole fraction)", "setting": "in n-butanol, 318.1 K", "result": 0.00424},
      {"measurement": "solubility (mole fraction)", "setting": "in n-butanol, 323.1 K", "result": 0.00579},
      {"measurement": "solubility (mole fraction)", "setting": "in n-butyl acetate, 283.1 K", "result": 0.00032},
      {"measurement": "solubility (mole fraction)", "setting": "in n-butyl acetate, 288.1 K", "result": 0.000417},
      {"measurement": "solubility (mole fraction)", "setting": "in n-butyl acetate, 293.1 K", "result": 0.000551},
      {"measurement": "solubility (mole fraction)", "setting": "in n-butyl acetate, 298.1 K", "result": 0.000714}
    ]}
  ]
}
